# Reference: patent publication US20100227853A1, “INHIBITORS OF CYCLIC AMP PHOSPHODIESTERASES” (Trustees of Boston College, priority 2008, published 2010)
# Where “and” joins values, the source holds several entries; their conditions need not be identical. Equal entries are not always repeated. Entries after “also recorded” stand apart in the source; their conditions may differ.
# Experiments:
# U937 cells = test: TNF alpha release by LPS-treated U937 cells; assay type: cell-based
# Lymphoma cells = test: in vitro assay on lymphoma cells (24 hours, Hoechst stain, fsc/ssc); assay type: cell-based
# Procedure: FIGS. 6A and 6B show the in vitro assay of BC54 action. Lymphoma cells are treated with the drug for 24 hours, then stained with Hoechst dye. The cells form a clearly defined population on the fsc/ssc dot plot. Vincristine treatment was used as a positive control. […] BC54 is referred to in the figure as S54.
# [1] = system: transplanted tumors (lymphomas); test: in vivo assay in mice with transplanted tumors (lymphomas)
# Procedure: FIGS. 7A and 7B show results of an in vivo assay of BC54 action.
# A 7 day experiment was conducted to determine the effect of BC54 on mice having transplanted tumors (lymphomas). Drugs were given i.p. once a day in 60-100 ul of PBS. • 3 animals got just BC54—to assess toxicity • 3 animals injected with lymphoma and treated with BC54 • 3 animals—no treatment • 1 animal—CHOP 0.5 MTD
# BC54 dose was 3 ul of 100 mM solution per mouse per injection. […]. […] After 7 days, the untreated mice were terminally ill. The group treated with BC54 looked better although they do show some clinical signs (hunched posture etc). […] Tumor load was evaluated in the spleen and in the peritoneal lymph nodes (FIG. 7).
# PBMC cells = test: proliferation and viability of PBMC cells; assay type: cell-based
# Source text: FIGS. 8A, 8B and 8C show the effect of BC54 on the proliferation and viability of PBMC cells.
# SIVmac239 = test: antiviral activity, SIV p27 ELISA in infected PBMC; assay type: cell-based, rhesus macaques; settings: for reduction in viral load: treatment on Day 1 and Day 3, SIV p27 ELISA
# Procedure: PBMC cells were isolated from uninfected rhesus macaques and mitogen stimulated (PHA). The cells were then incubated with SIVmac239 for 2 hours, following which they were washed to remove any free virus. BC54 was then added to the infected cells. Fresh compound was added after 3 days. The antiviral activity was measured by SIV p27 ELISA on day 3 and 7, while the cell viability was determined on day 7 by MTT assay. The treatment of cells on Day 1 and Day 3, leads to a 30-fold and 100-fold reduction in viral load on Days 4 and 7, respectively.
# CLL = CLL assay; assay type: cell-based
# [2] = system: PDE4A, PDE4B, PDE4D, PDE7A, PDE7B, PDE8A, PDE3A; test: Summary of PDE inhibitor profile
# PDE7B [3] = molecular target: T1, PDE7B (Rattus norvegicus, UniProt A0A0G2JXU0); test: in vitro enzyme assay of PDE7B activity in extracts from rat pulmonary endothelial cells; assay type: biochemical
# T1 construct: endogenous in cells; host or cells: rat pulmonary endothelial cells (extract)
# T1 sequence (A0A0G2JXU0 1-446): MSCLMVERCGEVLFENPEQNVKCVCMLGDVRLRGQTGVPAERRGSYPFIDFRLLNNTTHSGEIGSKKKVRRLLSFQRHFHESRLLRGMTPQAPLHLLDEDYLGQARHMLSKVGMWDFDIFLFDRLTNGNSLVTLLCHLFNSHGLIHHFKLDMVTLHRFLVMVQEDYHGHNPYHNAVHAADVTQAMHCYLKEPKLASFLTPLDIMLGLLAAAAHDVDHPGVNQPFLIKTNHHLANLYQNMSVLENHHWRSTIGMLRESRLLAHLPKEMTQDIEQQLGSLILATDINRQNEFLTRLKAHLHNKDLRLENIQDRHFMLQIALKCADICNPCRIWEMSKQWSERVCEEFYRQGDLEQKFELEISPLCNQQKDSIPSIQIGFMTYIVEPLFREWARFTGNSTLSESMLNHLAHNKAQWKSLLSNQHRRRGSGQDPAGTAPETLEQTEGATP
# Source text: FIG. 13 is the in vitro enzyme assays of PDE7B activity in extracts made from rat pulmonary endothelial cells.
# Jurkat cells = test: IL2 secretion by concanavalin A treated Jurkat cells; assay type: cell-based, human; settings: ConA 10 μg/ml, prostaglandin E2, 24 hours
# Source text: Jurkat cells, a human T cell lymphoblast-like cell line, increase expression of the cytokine IL2 in response to stimulation by concanavalin A (conA). This effect can be inhibited by elevated cAMP levels, although PDE4 inhibition alone appears to be insufficient to prevent IL2 induction (Kaminuma et al., Immunopharmacology, 1998 January; 38(3):247-52). However, the anti-inflammatory effect of PDE4 inhibitors can be detected using this assay by their ability to enhance the reduction of IL2 secretion by prostaglandin E2. IL2 levels are measured in Jurkat cells (5×10^5 cells/ml) stimulated by 10 μg/ml ConA in the presence of prostaglandin E2, with or without each test compound ([…]). After incubation at 37° C. for 24 hours, the resulting supernatant were collected and kept frozen at −70° C. until the time of assay. IL2 in the supernatants were measured by ELISA and the data is presented as a percentage of the PGE2 treated culture (FIG. 12).
# PDE7B [4] = molecular target: PDE7B (Homo sapiens, UniProt Q9NP56); test: cAMP elevation in yeast PDE7B-expressing strain; assay type: cell-based; design: targets used in the assays are full-length proteins (as opposed to simply the catalytic domain); expressed in transfected cells; host or cells: Schizosaccharomyces pombe
# [5] = system: PDE4A, PDE4B, PDE4D, PDE7A, PDE7B, PDE8A, PDE3A; test: Summary of PDE inhibitor profile; design: key: (1): Weak PDE7A inhibitor; (2): Strong PDE7A inhibitor; (3): Lillte/no activity under conditions used; (4): Weak PDE4A inhibitor; settings: overall classification, Table 18 footnotes
# PDE7A = PDE7A (Homo sapiens, UniProt Q13946); test: cAMP response in yeast strain expressing PDE7A; assay type: cell-based; design: targets used in the assays are full-length proteins (as opposed to simply the catalytic domain); expressed in transfected cells; host or cells: Schizosaccharomyces pombe, PDE gene integrated in place of cgs2; settings: PDE 7A; relative to BRL50481
# Sequence of PDE7A (Q13946 whole entry, the tested form may be a part): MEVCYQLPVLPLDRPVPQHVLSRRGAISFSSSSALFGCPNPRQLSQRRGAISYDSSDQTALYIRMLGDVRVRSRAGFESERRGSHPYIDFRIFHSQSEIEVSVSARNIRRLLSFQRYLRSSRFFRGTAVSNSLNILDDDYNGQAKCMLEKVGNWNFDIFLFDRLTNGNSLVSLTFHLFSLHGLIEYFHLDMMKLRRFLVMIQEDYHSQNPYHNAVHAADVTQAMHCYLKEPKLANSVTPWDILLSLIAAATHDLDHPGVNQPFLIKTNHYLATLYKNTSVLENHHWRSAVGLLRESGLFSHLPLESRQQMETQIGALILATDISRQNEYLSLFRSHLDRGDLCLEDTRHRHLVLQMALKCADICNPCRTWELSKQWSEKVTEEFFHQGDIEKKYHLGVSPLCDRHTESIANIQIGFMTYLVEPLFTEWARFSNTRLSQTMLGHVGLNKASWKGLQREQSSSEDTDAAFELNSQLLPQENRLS
# Sequence of PDE7B (Homo sapiens, UniProt Q9NP56) (Q9NP56 whole entry, species assumed, the tested form may be a part): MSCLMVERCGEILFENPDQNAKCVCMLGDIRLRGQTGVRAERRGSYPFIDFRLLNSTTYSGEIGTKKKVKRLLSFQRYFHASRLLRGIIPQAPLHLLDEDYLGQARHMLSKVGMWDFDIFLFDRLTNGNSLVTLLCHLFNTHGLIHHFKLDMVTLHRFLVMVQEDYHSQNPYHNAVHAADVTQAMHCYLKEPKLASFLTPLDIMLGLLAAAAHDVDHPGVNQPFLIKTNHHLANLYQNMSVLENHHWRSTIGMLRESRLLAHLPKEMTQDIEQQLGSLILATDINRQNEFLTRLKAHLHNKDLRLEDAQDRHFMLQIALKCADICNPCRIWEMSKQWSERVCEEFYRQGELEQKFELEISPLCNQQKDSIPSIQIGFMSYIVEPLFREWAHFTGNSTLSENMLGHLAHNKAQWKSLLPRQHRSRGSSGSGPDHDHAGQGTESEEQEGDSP
smiles,measurement,setting,value
CCOC(=O)c1cc2c(=O)n3ccccc3nc2n(C2CCCCC2)/c1=N/C(C)=O [BC54],"TNF alpha reduction, conclusion in words",U937 cells,good activity
same,"apoptosis of lymphoma cells, in words",Lymphoma cells,induces apoptosis
same,"""live"" population gone",Lymphoma cells; 24 hours treatment,~100%
same,toxicity in mice,"[1]; 3 ul of 100 mM solution per mouse per injection, i.p. once a day",no major signs of toxicity
same,spleen tumor burden,"[1]; i.p. once a day, 7 days",No significant effect
same,tumor load in lymph nodes,"[1]; i.p. once a day, 7 days",reduces the tumor load in lymph nodes
same,clinical appearance after 7 days,[1]; lymphoma-bearing mice,looked better
same,"efficacy in mouse DLBCL model, in words","[1]; mouse, in vivo",effective
same,toxicity to PBMC cells (proliferation and viability),PBMC cells,not found to be very toxic
same,"efficacy in SIV cell culture, in words",SIVmac239,effective
same,reduction in viral load,SIVmac239; Day 4,30 fold
same,reduction in viral load,SIVmac239; Day 7,100 fold
same,"activity in CLL assay, in words",CLL,good activity
same,"PDE inhibitor profile, in words",[2],"good PDE4 and PDE7 combination inhibitor; also recorded: affects PDE4D, but is weaker than on other 4 s and 7 s"
same,effect on PDE8A or PDE3A,[2],no effect
Cc1sc2ncnc(NC3CCCCC3)c2c1C [BC28],KI lower than that of BRL50481,"PDE7B [3]; PDE7B, rat pulmonary endothelial cell extracts",approximately 100 fold
same,Ki,"PDE7B [3]; cell extracts, read-out: KI on PDE7 (PDE7B) from rat pulmonary endothelial cells",~200 nM and 200 nM
same,"TNF alpha reduction, conclusion in words",U937 cells,"TNFα synergy with PDE4 inhibitors, though not as strong as for BC30"
same,"IL2 expression from Jurkat cells, in words",Jurkat cells,strong reduction
same,"PDE inhibitor profile, in words",[2],potent PDE7B inhibitor
same,"cAMP in yeast PDE7B-expressing strain, in words",PDE7B [4],induced cAMP elevation
"COc1ccc2c(c1)C1(C)CCC(=O)CC1CC2 (single isomer, unassigned) [Compound 11]",PDE inhibitor profile (Table 18),[5],11 (3)
same,cAMP Response (% BRL50481) 7A,PDE7A,89.00 % BRL50481
